In the supplement of paper PMC11451515:

Tests used:
Assay in all cases: AUC of viability dose-response curve (% viability x log10 dose units); higher = less sensitive
Conditions in all cases: 48 h
[1] = system: SEM cells
How it was run: (§1)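 Leukemia cells adapted to each medium (500 or 1000 cells/well, 1536-well plates) were exposed to library compounds in DMSO for 48 h at 37°C at 11 threefold doses, 47 μM to 0.79 nM. Luminescence by CellTiter-Glo One was normalised per plate to DMSO and cell-free wells, then fitted with a four-parameter log-logistic curve on log10 dose. Curves above full viability were scaled and quality-control failures removed before area under the curve was integrated by trapezoidal rule.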

[2] = system: P12-Ichikawa
How it was run: as §1

[3] = system: NOMO1
How it was run: as §1

[4] = RPMI 5 mM glucose + 10% dialyzed FBS

Structure (SMILES) | AUC of viability dose-response curve ([1]; HPLM + 10% dialyzed FBS) | AUC of viability dose-response curve ([1]; RPMI 5 mM glucose + 10% FBS) | AUC of viability dose-response curve [1, 4] | AUC of viability dose-response curve ([2]; HPLM + 10% dialyzed FBS) | AUC of viability dose-response curve ([2]; RPMI 5 mM glucose + 10% FBS) | AUC of viability dose-response curve [2, 4] | AUC of viability dose-response curve ([3]; HPLM + 10% dialyzed FBS) | AUC of viability dose-response curve ([3]; RPMI 5 mM glucose + 10% FBS) | AUC of viability dose-response curve [3, 4]
CC(C)[C@H](C(=O)Nc1ccc(C(=O)NO)cc1)c1ccccc1 | 340 | 346 | 342 | 351 | 346 | 350 | 361 | 368 | 364
COc1ccc(-n2c(C)c([N+](=O)[O-])c3ccc(O)cc32)cc1 | 469 | 453 | 468 | 446 | 465 | 464 | 452 | 476 | 446
C[C@H](NC(=O)[C@@H](O)c1cc(F)cc(F)c1)C(=O)N[C@@H]1C(=O)N(C)c2ccccc2-c2ccccc21 | 440 | 453 | 417 | 432 | 441 | 437 | 402 | 450 | 432
CC(C)(C)[C@]1(O)C[C@@H]2OC(=O)C[C@@]23C(=O)O[C@@H]2OC(=O)[C@H](O)C213 (some centres undefined) | 471 | 444 | 436 | 447 | 458 | 452 | 452 | 436 | 452
Nc1nccc(-c2ccc3noc(-c4ccc(Cl)cc4)c3c2)n1 | 425 | 457 | 462 | 468 | 466 | 470 | 449 | 464 | 469
Nc1cc(N2CCCCC2)nc(N)[n+]1[O-] | 451 | 451 | 455 | 469 | 468 | 475 | 451 | 461 | 465
CC(=O)OCC(=O)[C@@]1(O)CC[C@H]2[C@@H]3CCC/4=C/C(=O)/C=C\[C@]4(C)[C@H]3[C@@H](O)C[C@]12C | 383 | 425 | 428 | – | – | – | 439 | 450 | 472
COc1cc2c(cc1O)CCC1C2CC[C@@]2(C)C1CC[C@@H]2O (some centres undefined) | – | – | – | 359 | 368 | 382 | 390 | 412 | 404
Cc1n[nH]c2ccc(-c3cncc(OC[C@@H](N)Cc4ccccc4)c3)cc12 | 312 | 341 | 347 | 371 | 335 | 355 | 324 | 365 | 348
C=C1CCC2[C@](C)(CO)C(O)CC[C@]2(C)C1C/C=C1/C(=O)OCC1O (some centres undefined) | 439 | 383 | 420 | 454 | 457 | 448 | 395 | 459 | 453
